Paper PMC11645656, “MRGPRX4 mediates phospho-drug associated pruritus in a humanized mouse model” (Science translational medicine, 2024)
“And” between values parts separate entries of the source, which are not always exact repeats. Equal entries are not always repeated.

How the values were obtained:
MRGPRX4 (S83) = target: T1, MRGPRX4 (S83) (Homo sapiens, UniProt Q96LA9, L83S); assay: EC50 determination, intracellular calcium mobilization in MRGPRX4 stably expressed HEK293 cells (FLIPR Calcium 5, Flexstation-3); assay type: cell-based; set-up: Fig. 1D dose-response, calcium mobilization response (individual replicate) / calcium mobilization response (Fig. 1D dose-response raw data): unit not given here; details: individual replicate values, listed as Phenytoin Sodium; for Fig. 1D dose-response, calcium response at Concentration (M): phenytoin series
T1 construct: expressed in transfected cells
In short: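 EC50 came from a four-parameter logistic fit to averaged triplicate responses, each response being maximum post-stimulation signal less baseline. Intracellular calcium was monitored with Calcium 5 dye in HBSS with 20 mM HEPES, pH 7.4, after 1 h dye loading at 37 °C, using stably transfected HEK293 cells and parental controls.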

[1] = system: NP2-X4+ mice (MRGPRX4 in Mrgpra3+ NP2 sensory neurons); assay: Itch behavioral study (scratching bouts after subcutaneous nape injection) in NP2-X4+ mice; assay type: in vivo, mouse
NP2-WT mice = assay: Itch behavioral study (scratching bouts after subcutaneous nape injection) in littermate control NP2-WT mice; assay type: in vivo; details: 30 min after injection of 50 μl 10 mM into the nape, each cell one mouse
From the text: Fig. 2. Phosphate monoester prodrugs induce itch in NP2-MRGPRX4+ mice through activating NP2 primary sensory neurons. (A) Mating strategy to generate NP2-X4+ mice. (B) In situ hybridization showing MRGPRX4 transcripts (magenta) in NP2-X4+ DRG as indicated by arrowheads (left) but not in littermate control NP2-WT (right). NP2 subpopulation accounts for 5% of total DRG neurons. DAPI, blue. Scale bar, 50 μm. […] . Data are expressed as mean ± SEM. *p< 0.05, **p< 0.01 and ***p< 0.001 by two-tailed unpaired Student’s t-test. ns = no statistical significance observed. (D and E) Traces of average (top, depicted as mean ± 95% confidence interval) and individual (bottom, reflected by the heatmap) calcium activity, measured by fluorescence intensity normalized to the baseline intensity (FT/F0) over time of NP2-X4+ (D) and NP2-WT (E) DRG neurons labelled with GCaMP6s (n = 110–150 neurons pooled from 3–7 independent culture vessels from 2–4 mice in each condition). 10 μM phospho-drugs and 1 mM CQ were added as indicated by the arrowheads. Neurons with FT/F0 > 1.5 after compound application were considered a positive responder. NP2-X4+: NP2-MRGPRX4+; DRG, dorsal root ganglia; CQ: chloroquine.
. All the animals used were heterozygous unless otherwise specified. NP2-X4+ and NP2-WT littermates were generated by crossing Mrgpra3-Cre to Rosa26-lsl-MRGPRX4 as detailed previously ([15]). NP2-X4+ mice were further crossed to homozygous Rosa26-lsl-GCaMP6s to obtain NP2-WT/GCaMP6s and NP2-X4+/GCaMP6s animals. A detailed mating strategy is illustrated in fig. S5. Pirt-Cre-GCaMP6s animals were acquired by crossing Pirt-Cre to homozygous Rosa26-lsl-GCaMP6s. Pirt-Cre animals were generated through homologous recombination as indicated previously ([37]). Rosa26-lsl-GCaMP6s mouse line was provided by Dr. Dwight Bergles’ lab at the Johns Hopkins School of Medicine.

HTLA cells = assay: PRESTO-Tango β-arrestin recruitment assay, parental HTLA cells without MRGPRX4 (control, fig. S1); assay type: cell-based
From the text: Supplement NIHMS2038790-supplement-table.xlsx, sheet "fig. S1" | column: Concentration (M)

[2] = IV, clinical trials; ref New Drug Application: 020450; cited from earlier work

T1 sequence (Q96LA9 whole entry L83S): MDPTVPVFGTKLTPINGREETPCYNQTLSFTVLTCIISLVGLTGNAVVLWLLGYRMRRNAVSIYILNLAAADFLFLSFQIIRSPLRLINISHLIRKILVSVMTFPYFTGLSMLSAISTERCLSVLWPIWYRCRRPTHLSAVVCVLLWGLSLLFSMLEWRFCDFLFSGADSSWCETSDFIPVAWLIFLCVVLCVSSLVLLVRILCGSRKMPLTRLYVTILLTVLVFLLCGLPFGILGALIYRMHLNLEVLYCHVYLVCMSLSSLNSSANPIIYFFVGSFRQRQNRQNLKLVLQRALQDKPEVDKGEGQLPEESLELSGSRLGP

O=C1NC(=O)C(c2ccccc2)(c2ccccc2)N1 [Phenytoin]
Fig. 1D dose-response, calcium response at Concentration (M) (MRGPRX4 (S83); 4.88281e-7 M): -45.834 and -46.962 and -43.233
Fig. 1D dose-response, calcium response at Concentration (M) (MRGPRX4 (S83); 9.76563e-7 M): -42.023 and -51.874 and -41.78
Fig. 1D dose-response, calcium response at Concentration (M) (MRGPRX4 (S83); 1.95313e-6 M): -57.631 and -43.259 and -52.591
Fig. 1D dose-response, calcium response at Concentration (M) (MRGPRX4 (S83); 3.90625e-6 M): -30.902 and -51.949 and -54.701
Fig. 1D dose-response, calcium response at Concentration (M) (MRGPRX4 (S83); 7.8125e-6 M): -36.341 and -24.025 and -23.478
Fig. 1D dose-response, calcium response at Concentration (M) (MRGPRX4 (S83); 1.5625e-5 M): -24.49 and -31.993 and -24.486
Fig. 1D dose-response, calcium response at Concentration (M) (MRGPRX4 (S83); 3.125e-5 M): -42.34 and -14.448 and -21.073
Fig. 1D dose-response, calcium response at Concentration (M) (MRGPRX4 (S83); 6.25e-5 M): -29.178 and -38.728 and -12.364
Fig. 1D dose-response, calcium response at Concentration (M) (MRGPRX4 (S83); 0.00025 M): 21.7467 and 26.6867 and 14.9677
Fig. 1D dose-response, calcium response at Concentration (M) (MRGPRX4 (S83); 0.0005 M): -0.1003 and 34.5457 and 1.141
calcium mobilization response (Fig. 1D dose-response raw data) (MRGPRX4 (S83); concentration 4.88281e-7 M): -35.967 and -38.387 and -9.249 and -43.815 and -12.548 and -27.242
calcium mobilization response (Fig. 1D dose-response raw data) (MRGPRX4 (S83); concentration 9.76563e-7 M): -3.6717 and 0.5703 and -1.3847 and -25.061 and -39.258 and -5.762
calcium mobilization response (Fig. 1D dose-response raw data) (MRGPRX4 (S83); concentration 1.95313e-6 M): -0.8477 and -0.3367 and -2.8407 and -17.925 and -29.096 and -31.733
calcium mobilization response (Fig. 1D dose-response raw data) (MRGPRX4 (S83); concentration 3.90625e-6 M): -4.2817 and -4.6827 and 7.036 and -45.513 and -21.585 and -2.642
calcium mobilization response (Fig. 1D dose-response raw data) (MRGPRX4 (S83); concentration 7.8125e-6 M): -6.1147 and -5.4597 and 3.666 and -0.809 and -24.700 and -20.368
calcium mobilization response (Fig. 1D dose-response raw data) (MRGPRX4 (S83); concentration 1.5625e-5 M): -2.1987 and 5.167 and -0.3347 and -19.624 and -8.530 and -11.014
calcium mobilization response (Fig. 1D dose-response raw data) (MRGPRX4 (S83); concentration 3.125e-5 M): -5.0347 and -1.5897 and 2.935 and -19.576 and -12.591 and -8.608
calcium mobilization response (Fig. 1D dose-response raw data) (MRGPRX4 (S83); concentration 6.25e-5 M): 13.7733 and 12.6223 and 5.79 and -9.327 and -10.716 and -3.999
calcium mobilization response (Fig. 1D dose-response raw data) (MRGPRX4 (S83); concentration 0.00025 M): 17.3763 and 20.0503 and 26.8243 and 17.981 and 21.189 and 24.656
calcium mobilization response (Fig. 1D dose-response raw data) (MRGPRX4 (S83); concentration 0.0005 M): 40.1453 and 34.4913 and 26.1333 and 33.840 and 5.994 and 28.344
Scratching / itch behavior, NP2-X4+ mice vs WT littermates ([1]; 50 μl 10 mM nape injection, 30 min): no differences in itch behavior were detected
Scratching bouts of individual animals ([1]; NP2-X4+, 30 min after injection of 50 μl 10 mM into the nape, each cell one mouse): 6 and 0 and 19 and 1 (2×) and 14 and 16 and 21 and 12 and 20
Scratching bouts of individual animals (NP2-WT mice): 7 (2×) and 14 and 1 and 11 and 59 and 2 and 5 and 42 and 24
PRESTO-Tango response (fig. S1), single replicate (HTLA cells; concentration 4.88281e-6 M): 0.008545 and 0.005867 and 0.007953 and 0.006901 and 0.004547 and 0.009824
PRESTO-Tango response (fig. S1), single replicate (HTLA cells; concentration 9.76563e-6 M): 0.00741 and 0.01006 and 0.006055 and 0.01246 and 0.001908 and 0.0161
PRESTO-Tango response (fig. S1), single replicate (HTLA cells; concentration 1.95313e-5 M): 0.004145 and 0.01453 and 0.008851 and 0.01106 and 0.007187 and 0.01768
PRESTO-Tango response (fig. S1), single replicate (HTLA cells; concentration 3.90625e-5 M): 0.005318 and 0.007104 and 0.005862 and 0.009351 and 0.00878 and 0.001453
PRESTO-Tango response (fig. S1), single replicate (HTLA cells; concentration 7.8125e-5 M): 0.01242 and 0.005662 and 0.007299 and 0.009043 and 0.01323 and 0.004261
PRESTO-Tango response (fig. S1), single replicate (HTLA cells; concentration 0.0003125 M): 0.006045 and 0.003571 and 0.004631 and 0.006824 and 0.00263 and 0.004138
PRESTO-Tango response (fig. S1), single replicate (HTLA cells; concentration 0.000625 M): 0.006823 and 0.004668 and 0.00481 and 0.009762 and 0.00692 and 0.01249
PRESTO-Tango response (fig. S1), single replicate (HTLA cells; concentration 0.0025 M): 0.006747 and 0.00542 and 0.005105 and 0.007273 and 0.002426 and 0.006102
PRESTO-Tango response (fig. S1), single replicate (HTLA cells; concentration 0.005 M): 0.003966 and 0.00315 and 0.01104 and 0.009531 and 0.005922 and 0.01091
Patients who reported itch [2]: 4.5%
